What was measured:
Format in all cases: physicochemical
[1] = Water resistant ability (waterproof-film-forming ability), contact angle before and after washing; details: film on glass plate, before and after washing with flowing tap water 25 mL/s, 1 minute; smaller is better
Description: (6) Water Resistant Ability (Waterproof-Film-Forming Ability)
A sample is dissolved in chloroform to prepare a sample solution containing 10% by mass of the sample. The prepared sample solution is applied onto a washed glass plate. Then, the solvent is removed to form a film, and one drop of distilled water is dropped onto the formed film. The contact angle between the film surface and the water droplet is measured. After the measurement, the film is washed with flowing tap water (25 mL/s, 1 minute). The water resistant ability is evaluated by comparing the contact angles before and after the washing. A smaller difference in the contact angle before and after the washing means better water resistant ability.

[2] = Water-holding property test 1 (water taken up by sample/Vaseline mixture at 40° C.); details: sample 1 g + Vaseline 9 g, mass of water to mass of mixture, higher is better
Description: (1) Water-Holding Property Test 1
The water-holding property test of esterification reaction products is conducted with reference to the lanolin water retention value test in British Pharmacopoeia (BP) as follows:
A measurement sample (1 g) and Vaseline (9 g) are mixed and vigorously stirred (200 to 300 rpm) in a thermostat chamber at 40° C. while dropwise adding purified water thereto. The point when water is no longer being received is determined as the end-point and is expressed as a percentage of mass of water to mass of the mixture. A higher value means better water-holding properties of the sample.

[3] = Water-retaining property test (mass loss after 24 hours at 40° C.); details: reduced mass after 24 hours at 40° C., lid off; lower is better
Description: (3) Water-Retaining Property Test
A measurement sample (1 g) and Vaseline (9 g) are mixed and vigorously stirred (500 rpm, 3 minutes) in a thermostat chamber at 40° C. while dropwise adding 10 g of purified water thereto (the ratio of purified water to the mixture of sample and Vaseline was 1:1). When the sample become smooth, 10 g of the sample is uniformly applied onto a Petri dish so as to have a thickness of 0.5 to 1.5 mm and then put in a thermostat chamber at 40° C. with the lid off. After 24 hours, the sample is taken out from the chamber. The mass after the still standing is measured, and the reduced mass after the standing is calculated and is expressed as a percentage to the mass of the applied sample. A lower value means better water-retaining properties of the sample.

[4] = Water-holding property test 2 (differential scanning calorimetry of sample:water 7:3); details: sample:water 7:3, DSC 2° C./min from −15° C. to 45° C.; no peak = good water-holding
Description: (2) Water-Holding Property Test 2
A measurement sample and water are mixed at a mass ratio of 7:3 and are vigorously stirred (500 rpm, 3 minutes) in a thermostatic chamber at 70° C. to obtain a water-holding substance. The obtained water-holding substance is analyzed with a differential scanning calorimeter (device name “DSC 6200”, manufactured by Seiko Instruments Inc.). That is, the temperature of the water-holding substance is raised at a rate of 2° C./min in the range from −15° C. to 45° C. to obtain a differential scanning calorimetry curve, and the curve is confirmed whether an endothermic peak due to water at around 0° C. is present or not. When this endothermic peak is not observed, the water-holding properties are judged to be good.

[5] = Dispersibility test (titanium oxide, octyl palmitate; wetting point and fluid point); details: sample 4 g + titanium oxide 20 g, octyl palmitate added; for (4) Dispersibility Wetting point: lower is better
Description: A sample (4 g) and titanium oxide (20 g) are mixed, and then octyl palmitate (manufactured by The Nisshin OilliO Group, Ltd. under the trade name Salacos P-8) is gradually added thereto. The point when the mixture become uniform as a whole is determined as the wetting point, and the point when the mixture starts to flow by tilting the whole mixture is determined as the fluid point. The amounts of octyl palmitate added until to reach the respective points are measured and used as the wetting point value and the fluid point value.
A lower wetting point value or a smaller difference between the wetting point value and the fluid point value means higher pigment-dispersing properties of the sample.

[6] = Solubility of 4-tert-butyl-4′-methoxydibenzoylmethane when mixed with esterification reaction product; details: mixed with esterification reaction product (Production Example 1)

Row | Molecule | Water resistant ability (difference in contact angle (°)) [1] | (1) Water-holding properties [2] | (3) Water-retaining properties [3] | endothermic peak due to water at around 0° C. [4] | (4) Dispersibility Fluid point [5] | (4) Dispersibility Wetting point [5] | solubility of 4-tert-butyl-4′-methoxydibenzoylmethane [6]
1 | polyglyceryl triisostearate | 21.0 ° |  |  |  |  |  | 
2 | CC(C)CCCCCCCCCCCCCCCOC(=O)CC(O)C(=O)OCCCCCCCCCCCCCCCC(C)C (stereo not shown) [Diisostearyl malate, diisostearyl malate] | 47.4 ° | 200 % by mass | 3.0 % by mass | detected | 22 % by mass | 3 % by mass | 
3 | COc1ccc(C(=O)CC(=O)c2ccc(C(C)(C)C)cc2)cc1 [4-tert-butyl-4′-methoxydibenzoylmethane] |  |  |  |  |  |  | improved
4 | CCCCCCC(O)CCCCCCCCCCC(=O)O[C@H]1CC[C@@]2(C)C(=CC[C@H]3[C@@H]4CC[C@H]([C@H](C)CCCC(C)C)[C@@]4(C)CC[C@@H]32)C1 (stereo partly shown) [Cholesteryl hydroxystearate, cholesteryl hydroxystearate] |  | 320 % by mass | 1.9 % by mass | detected | 9 % by mass | 2 % by mass | 

— patent US7632957B2, “Esterification reaction products and cosmetic products” (The Nisshin Oillio Group, Ltd., priority 2005, dated 2009)
